From US8901317B2, “Tryptamine derivatives, their preparation and their use in gastropathy” (Council of Scientific & Industrial Research, priority 2010, dated 2014) come the findings set out here.

Experiment [1] can be described thus: DPPH free radical scavenging assay. The protocol: The antioxidant property of different tryptamine derivatives were assessed and compared with the known antioxidants for potency. A range of different synthesized compounds and known anti oxidants, quercetin, ascorbic acid and gallic acid were analyzed by the FRAP assay. The FRAP assay is based on the measurement of the ability of the substance to reduce Fe^3+ to Fe^2+, greater the reducing ability greater the anti oxidant property. Antioxidants reduce Fe^3+-TPTZ in to blue colored Fe^2+-TPTZ complex, which results in an increase in the absorbance at 595 nm giving a FRAP value. […] Absorbance changes at different time intervals (FIG. 6) as well as at different concentrations (FIG. 7) at time 6 min in the presence of different compounds at 595 nm were measured. FRAP values at 6 min and 65 min were calculated from different tryptamine derivatives and some known antioxidant (Table 1). […] DPPH assay based on the DPPH free radicals scavenging power of the antioxidant molecules. Higher the scavenging power higher will be the antioxidant property. […] This assay was performed in presence of some known antioxidants such as ascorbic acid, quercetin and gallic acid.
2,2-Diphenyl-1-Picrylhydrazyl (DPPH) is a stable free radical that can accept hydrogen radical or an electron and become a stable diamagnetic molecule. The antioxidants can scavenge the DPPH by donating hydrogen as visualized by discoloration of the DPPH radical from purple to yellow (Pal, C; et al. Free Radic Biol Med, 49(2), 258-267; 2010, Ben Farhat, M.; et al. J. Agric. Food Chem. 57:10349-10356; 2009, Han, J; et al. Wei Sheng Yan Jiu 38:596-598; 2009). The assay system contained 1 mL of compounds under investigation dissolved (in methanol, some compound dissolved in water) at different concentrations in the range 10-100 μM solution and 4 ml of DPPH (0.15 mM) in methanol (80% in water v/v) and mixed well. It was allowed to stand for 30 min at 27° C. away from light. Ascorbic acid at the same concentration was taken as positive control. The absorbance of the solution was measured spectrophotometrically at 517 nm and from the decrease of absorption; the antioxidant activity of different tryptamine derivatives were determined.
In general terms: DPPH is a stable violet radical that fades when it is reduced.

A further experiment concerns caspase-9. As to the kind of experiment: Caspase-9 activity in gastric mucosal tissue. The settings on record: gastric mucosa. Format: in vivo, rats. On the procedure: From cytosolic fraction of gastric mucosal tissues, caspase-9 and caspse-3 activities were measured using commercially available kit (Biovision, Mountain View, Calif., USA and Sigma respectively). In brief, the gastric mucosa was homogenized in caspase lysis buffer (provided with the respective kit). The homogenate was centrifuged at 16,000×g for 15 min. The supernatant was collected and mixed with 50 μl of 2× reaction buffer (provided with the respective kit). This was followed by addition of the substrates: […] (200 μM final concentration) for caspase-3 and LEHD-pNA (200 μM final concentration) for caspase-9. The mixture was incubated at 37° C. for 1 hr and absorbance was taken at 405 nm (Maity, P.; et al. J. Biol. Chem. 284:3058-3068; 2009, Maity, P.; et al. J. Biol. Chem. 283:14391-14401; 2008, Maity, P.; et al. J. Pineal Res. 46:314-323; 2009).

For experiment [2], the system named is diclofenac induced gastric mucosal injury. As to the kind of experiment: Diclofenac-induced gastric mucosal injury (ulcer index). Format: in vivo, Sprague-Dwaley rats. The settings on record: diclofenac 75 mg kg^−1 oral. The protocol:
Sprague-Dwaley rats (180-220 gm) were used for this study. Each group (control or experimental) of animals was maintained at 24±2° C. with 12 hrs lights and dark cycle. The animals were fasted for 24 hrs before the start of experiments. They were provided with water ad libitum to avoid food-induced increased acid secretion and its effect on gastric lesions. Gastric mucosal ulcer was developed by indomethacin as described (Pal, C; et al. Free Radic Biol Med, 49(2), 258-267; 2010, Biswas, K.; et al. J. Biol. Chem. 278:10993-11001; 2003, Bandyopadhyay, U.; et al. Life Sci. 71:2845-2865; 2002). Briefly, all the animals were divided into control, indomethacin and test compound group. Oral administration of indomethacin at a dose of 48 mg kg^−1 b.w was given to the fasted animals to induce gastric ulcer. In the drug-pretreated groups, the animals were given drug (50, 20, 10, 5, 3, 1 mg kg^−1 b.w.) intraperitoneally 30 min prior to ulcer induction with indomethacin. Control group received vehicle only but no indomethacin. After 4 hrs of indomethacin treatment, the animals were sacrificed under proper euthanasia and stomachs were collected. The mucosal injury was scored as ulcer index as follows: 0=no pathology; 1=one pinhead ulcer. The sum of the total scores divided by the number of animals gave the ulcer index. All the in vivo studies were done in accordance with the institute animal ethical committee guidelines. To see the effect of SEGA on diclofenac induced gastric mucosal injury, gastric mucosal damage was developed by the oral administration of diclofenac (75 mg kg^−1) and the rest of the experiment was carried out in a similar way as described for indomethacin. Diclofenac produced pinhead ulcer like indomethacin and the mucosal injury was scored as ulcer index as described above. Ethanol-induced gastric mucosal injury was developed with oral administration of 1 ml of 50% ethanol (Banerjee, R. K. (2002) Life Sci 71, 2845-2865) and after 4 hrs the animals were sacrificed and cold-restrain stress induced mucosal injury was developed by immobilizing the animals at 4° C. for 3.5 hrs (Banerjee, R. K. (2002) Life Sci 71, 2845-2865, (2003) J Biol Chem 278, 10993-11001).

Experiment [3] has as its system indomethacin-induced gastric mucosal injury. Nature of the experiment: Healing effect on indomethacin-induced gastric damage. Format: in vivo, Sprague-Dwaley rats. The settings on record: 50 mg kg^−1 i.p. 4 hrs after indomethacin 48 mg kg^−1. On the procedure:
Gastric mucosal injury was first induced with indomethacin treatment at a dose of 48 mg kg^−1. After 4 hrs of the induction of mucosal injury, some of the animals were divided into two different groups (n=6), i.e., auto healing and SEGA-induced healing. This time point was referred as ‘0’ hr of healing. At this point of time, in the SEGA-induced healing group, SEGA was administered (i.p) at the dose of 50 mg kg^−1 (this dose was selected from the dose-response curve). The animals, which were not treated with SEGA and received only indomethacin, served as the auto healing group. Starting from 0 hr, the stomach was dissected out from all groups at the intervals of 2 hrs, 4 hrs and 8 hrs respectively for measuring ulcer index as described (Maity, P.; et al. J. Biol. Chem. 283:14391-14401; 2008) and histological studies.

As to `O=C(NCCc1c[nH]c2ccc(O)cc12)c1cc(O)c(O)c(O)c1` [Compound 3a, 3,4,5-trihydroxy-N-(2-(5-hydroxy-1H-indol-3-yl)ethyl)benzamide], in experiment [1] (among all the derivatives), the “DPPH scavenging power in words” value is on record as “higher scavenging power”. Also, the “Absorbance change (ΔA) at 30 min” value in experiment [1] (compounds 100 μM, 517 nm (Table 2)) was determined as 0.45 ± 0.08; in experiment [1] (concentration 10 μM (Table 3)), 0.27 ± 0.03; in experiment [1] (concentration 30 μM (Table 3)) it was 0.34 ± 0.05; in experiment [1] (concentration 50 μM (Table 3)), 0.37 ± 0.07; in experiment [1] (concentration 80 μM (Table 3)) it was 0.42 ± 0.07; in experiment [1] (concentration 100 μM (Table 3)), 0.45 ± 0.08. Moreover, the “antioxidant power compared with ascorbic acid, quercetin and gallic acid” value in experiment [1] (data not shown) is listed as “almost equal antioxidant power”. In addition, the “activation of caspase-9 during indomethacin treatment” value with caspase-9 is reported as “prevents the activation of caspase-9”. Besides, the “protection, diclofenac induced ulcer” value in experiment [2] (dose 1 mg kg^−1 i.p.) is reported as 22%; in experiment [2] (dose 3 mg kg^−1 i.p.), 25%; in experiment [2] (dose 5 mg kg^−1 i.p.), 42%; in experiment [2] (dose 10 mg kg^−1 i.p.), 57%; in experiment [2] (dose 20 mg kg^−1 i.p.), 72%; in experiment [2] (dose 50 mg kg^−1 i.p.), 82%. Moreover, in experiment [3], the “healing of already damaged gastric mucosa (ulcer index)” value is reported as “accelerates the healing process”.
